# Experimental data from patent US11077036B2, “Lactam solubility” (Conopco, Inc., priority 2015, dated 2021).
# Assay: Lactam solubility in water or water + ethyl lactate (48 hours agitation, filtration, HPLC quantification)
# Assay type: physicochemical
# Details: for Mean Lactam Level in Solution: 48 hours agitation
# Description: The following example uses, without limitation, 4-(4-chlorophenyl)-5-methylene-pyrrol-2-one and ethyl lactate.
# Excess solid lactam (˜3 mg) was placed in a Whatman® Mini Uniprep sample vial, fitted with a 0.45 μm nylon filter. Water or water+ethyl lactate (500 μL) was added the mixture shaken and tapped briefly to initially disperse the solid and the mixture then agitated for 48 hours using a plate shaker fitted with a vial holder (see image below). After 48 hours, the solid was removed from the system by pressing down the plunger with integral filter on the vial (see image below). This removes the solid and provides filtered solution within the inner chamber which is then ready for analysis.
# The level of lactam dissolved in solution was quantified using HPLC analysis. Samples were analysed on an Agilent 1200® series HPLC fitted with a Thermo Hypersil® Gold C18 column (15×2.1×3 μm), isocratic elution with 60/40 methanol/water (+0.1% Formic Acid), 0.4 mL/min flow rate, using a DAD detector at 285 nm. 4-(4-chlorophenyl)-5-methylene-pyrrol-2-one has a retention time of ˜2.8 minutes.
# The absolute level of lactam in solution is measured and reported as an increase in solubility of lactam relative to water alone.
# [1] = 0 % ethyl lactate in water (water alone)
smiles,measurement,setting,value
C=C1NC(=O)C=C1c1ccc(Cl)cc1 [4-(4-chlorophenyl)-5-methylene-pyrrol-2-one],Solubility Increase vs water alone,[1],1.00
same,Mean Lactam Level in Solution,[1],5.7 ppm
same,Solubility Increase vs water alone,0.5 % ethyl lactate in water,1.21
same,Mean Lactam Level in Solution,0.5 % ethyl lactate in water,6.9 ppm
same,Solubility Increase vs water alone,1 % ethyl lactate in water,1.21
same,Mean Lactam Level in Solution,1 % ethyl lactate in water,6.9 ppm
same,Solubility Increase vs water alone,2 % ethyl lactate in water,1.99
same,Mean Lactam Level in Solution,2 % ethyl lactate in water,11.3 ppm
same,Solubility Increase vs water alone,5 % ethyl lactate in water,4.63
same,Mean Lactam Level in Solution,5 % ethyl lactate in water,26.4 ppm
same,Solubility Increase vs water alone,10 % ethyl lactate in water,10.57
same,Mean Lactam Level in Solution,10 % ethyl lactate in water,60.2 ppm
